Source: the supplement of paper PMC3621838
± gives the standard deviation of the averaged measurements.

Test system: HEK293 NF-kB-luciferase reporter cells
Experiment: NF-kB luciferase reporter activity, robust Z-score vs plate median (robust Z-score (log luminescence)); higher = stronger NF-kB reporter activation
Conditions: TNF treatment time 8.5 h, transfection time 72 h
Procedure: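 Primary screen of an Ambion Pre-miR miRNA mimic library (miRBase v8.0, 1.6 pmol/well, 384-well, duplicate) reverse-transfected into HEK293 cells stably expressing a 5x NF-kB firefly luciferase reporter. After 72 h the cells were treated with vehicle or TNF (40 ng/mL) for 8.5 h and luminescence was read (BriteLite). Raw luminescence was log-transformed and converted to a robust Z-score per plate: (x - plate median)/plate MAD. Sequence given is the mature miRNA strand of the double-stranded mimic.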

Sequence | NF-kB luciferase reporter activity (TNF 0 ng/mL) | NF-kB luciferase reporter activity (TNF 40 ng/mL)
AGAGGUAGUAGGUUGCAUAGU | -0.2 ± 0.023 | -1.24 ± 0.038
AGAGGUAUAGGGCAUGGGAAAA | -0.25 ± 0.57 | -1.06 ± 0.24
AGAUCGACCGUGUUAUAUUCGC | 0.225 ± 0.32 | -0.0562 ± 0.026
AGCUCGGUCUGAGGCCCCUCAG | 1.38 ± 0.13 | -1.1 ± 0.24
AGGACCUGCGGGACAAGAUUCUU | -0.175 ± 0.95 | 1.11 ± 0.19
AGGGCCCCCCCUCAAUCCUGU | 1.69 ± 0.94 | 0.259 ± 0.1
AGGUUACCCGAGCAACUUUGCA | 0.305 ± 0.58 | -0.0618 ± 0.016
AGUGACAUCACAUAUACGGCAGC | -1.06 ± 0.48 | -2.733 ± 0.0029
AGUGGGGAACCCUUCCAUGAGGA | -0.516 ± 0.47 | -2.85 ± 0.1
AUAAGACGAGCAAAAAGCUUGU | -0.187 ± 0.52 | -1.62 ± 0.032
AUCACACAAAGGCAACUUUUGU | -0.634 ± 0.41 | -0.131 ± 0.049
AUCAGCAAACAUUUAUUGUGUG | -0.389 ± 0.14 | -0.5 ± 0.044
AUCAUAGAGGAAAAUCCACGU | -0.604 ± 0.17 | -0.743 ± 0.14
AUCAUAGAGGAAAAUCCAUGUU | -0.92 ± 0.38 | -1.03 ± 0.066
AUCAUGAUGGGCUCCUCGGUGU | -0.346 ± 1.1 | -0.71 ± 0.099
AUCCUUGCUAUCUGGGUGCUA | -0.588 ± 0.71 | 0.413 ± 0.069
AUCGGGAAUGUCGUGUCCGCC | 1.11 ± 0.67 | 0.676 ± 0.033
AUCGUGCAUCCCUUUAGAGUGUU | 4.42 ± 0.37 | 0.437 ± 0.046
AUCGUGCAUCCUUUUAGAGUGU | 4.81 ± 0.46 | 0.331 ± 0.0088
AUGCACCUGGGCAAGGAUUCUG | -0.197 ± 0.13 | 1.14 ± 0.15
AUUACAUGGCCAAUCUC | 0.0633 ± 0.4 | 0.754 ± 0.24
AUUCCUAGAAAUUGUUCAUA | 0.0899 ± 0.13 | 0.855 ± 0.032

Sequence | NF-kB luciferase reporter activity (TNF 0 ng/mL) | NF-kB luciferase reporter activity (TNF 40 ng/mL)
AUUCUGCAUUUUUAGCAAGU | 3.61 ± 0.35 | -0.325 ± 0.13
AUUGACACUUCUGUGAGUAG | -0.231 ± 0.69 | -0.474 ± 0.021
CAAAGCGCUCCCCUUUAGAGGU | 0 | 0.254 ± 0.098
CAAAGCGCUUCCCUUUGGAGC | 0.207 ± 0.18 | 0.305 ± 0.0055
CAAAGCGCUUCUCUUUAGAGUG | -0.207 ± 0.29 | 0.143 ± 0.13
CAAAGUGCCUCCCUUUAGAGUGU | 0.645 ± 0.51 | 0.811 ± 0.028
CAACGGAAUCCCAAAAGCAGCU | 0.539 ± 0.19 | 1.2 ± 0.21
CACCCGUAGAACCGACCUUGCG | -0.634 ± 0.41 | 0.175 ± 0.09
CACUCAGCCUUGAGGGCACUUUC | -0.36 ± 0.51 | 1.02 ± 0.045
CAGCAGCAAUUCAUGUUUUGAA | 1.16 ± 0.43 | 0.65 ± 0.09
CAGCAGCACACUGUGGUUUGU | 0.765 ± 0.17 | 0.0663 ± 0.052
CAGUGCAAUAGUAUUGUCAAAGC | 0.753 ± 0.32 | 0.85 ± 0.028
CAGUGCAAUGAUGAAAGGGCAU | 1.21 ± 0.24 | 1.237 ± 0.0041
CAUCCCUUGCAUGGUGGAGGGU | 0.67 ± 0.24 | 0.53 ± 0.0024
CAUCUGGAGGUAAGAAGCACUUU | 0.889 ± 0.59 | -1.17 ± 0.072
CAUCUUACCGGACAGUGCUGGA | -1.28 ± 0.79 | -0.895 ± 0.12
CCACACCGUAUCUGACACUUU | -0.604 ± 0.17 | 0.0155 ± 0.04
CCACUGCCCCAGGUGCUGCUGG | 0.831 ± 0.013 | -0.0587 ± 0.18
CCCAGAUAAUGGCACUCUCAA | -0.57 ± 0.39 | -0.306 ± 0.12
CCCAGUGUUUAGACUAUCUGUUC | -0.547 ± 0.91 | -0.613 ± 0.27
CCUAGUAGGUGUCCAGUAAGUGU | -0.0662 ± 0.93 | 0.432 ± 0.025
CCUCUAGAUGGAAGCACUGUCU | -0.0988 ± 0.27 | 0.749 ± 0.033
